Assay results published in the NIST ThermoML archive (doi:10.1016/j.fluid.2005.07.009).
± gives the expanded uncertainty stated by the source.

What was measured:
[1] = Molar enthalpy of transition or fusion; settings: Crystal; DSC
[2] = molar heat capacity at constant pressure; settings: 101.33 kPa, Small sample (50 mg) DSC

CCCCCCCCCCN [1-decanamine]
Molar enthalpy of transition or fusion [1]: 42.7 ± 1.2 kJ/mol | molar heat capacity at constant pressure ([2]; 260.31 K, Crystal): 259.31 ± 5.2 J/K/mol | molar heat capacity at constant pressure ([2]; 260.64 K, Crystal): 260.44 ± 5.2 J/K/mol | molar heat capacity at constant pressure ([2]; 260.93 K, Crystal): 261.21 ± 5.2 J/K/mol | molar heat capacity at constant pressure ([2]; 261.39 K, Crystal): 261.42 ± 5.2 J/K/mol | molar heat capacity at constant pressure ([2]; 261.62 K, Crystal): 262.06 ± 5.2 J/K/mol | molar heat capacity at constant pressure ([2]; 261.99 K, Crystal): 263.4 ± 5.3 J/K/mol | molar heat capacity at constant pressure ([2]; 262.32 K, Crystal): 263.89 ± 5.3 J/K/mol | molar heat capacity at constant pressure ([2]; 262.67 K, Crystal): 264.94 ± 5.3 J/K/mol | molar heat capacity at constant pressure ([2]; 262.94 K, Crystal): 265.77 ± 5.3 J/K/mol | molar heat capacity at constant pressure ([2]; 263.34 K, Crystal): 266.8 ± 5.3 J/K/mol | molar heat capacity at constant pressure ([2]; 263.61 K, Crystal): 266.97 ± 5.3 J/K/mol | molar heat capacity at constant pressure ([2]; 263.92 K, Crystal): 267.74 ± 5.4 J/K/mol | molar heat capacity at constant pressure ([2]; 264.39 K, Crystal): 269.3 ± 5.4 J/K/mol | molar heat capacity at constant pressure ([2]; 264.62 K, Crystal): 269.42 ± 5.4 J/K/mol | molar heat capacity at constant pressure ([2]; 264.91 K, Crystal): 270.38 ± 5.4 J/K/mol | molar heat capacity at constant pressure ([2]; 265.33 K, Crystal): 271.97 ± 5.4 J/K/mol | molar heat capacity at constant pressure ([2]; 265.61 K, Crystal): 272.3 ± 5.5 J/K/mol | molar heat capacity at constant pressure ([2]; 265.95 K, Crystal): 273.03 ± 5.5 J/K/mol | molar heat capacity at constant pressure ([2]; 266.38 K, Crystal): 274.58 ± 5.5 J/K/mol | molar heat capacity at constant pressure ([2]; 266.67 K, Crystal): 275.4 ± 5.5 J/K/mol | molar heat capacity at constant pressure ([2]; 266.96 K, Crystal): 275.97 ± 5.5 J/K/mol | molar heat capacity at constant pressure ([2]; 267.36 K, Crystal): 277.46 ± 5.5 J/K/mol | molar heat capacity at constant pressure ([2]; 267.62 K, Crystal): 278.39 ± 5.6 J/K/mol | molar heat capacity at constant pressure ([2]; 267.94 K, Crystal): 279.27 ± 5.6 J/K/mol | molar heat capacity at constant pressure ([2]; 268.33 K, Crystal): 280.36 ± 5.6 J/K/mol | molar heat capacity at constant pressure ([2]; 268.66 K, Crystal): 281.82 ± 5.6 J/K/mol | molar heat capacity at constant pressure ([2]; 268.95 K, Crystal): 282.79 ± 5.7 J/K/mol | molar heat capacity at constant pressure ([2]; 269.32 K, Crystal): 283.64 ± 5.7 J/K/mol | molar heat capacity at constant pressure ([2]; 269.63 K, Crystal): 284.29 ± 5.7 J/K/mol | molar heat capacity at constant pressure ([2]; 270.21 K, Crystal): 285.94 ± 5.7 J/K/mol | molar heat capacity at constant pressure ([2]; 298.11 K, Liquid): 372.55 ± 7.5 J/K/mol | molar heat capacity at constant pressure ([2]; 299.64 K, Liquid): 373.35 ± 7.5 J/K/mol | molar heat capacity at constant pressure ([2]; 300.38 K, Liquid): 373.78 ± 7.5 J/K/mol | molar heat capacity at constant pressure ([2]; 301.27 K, Liquid): 373.82 ± 7.5 J/K/mol | molar heat capacity at constant pressure ([2]; 302.37 K, Liquid): 374.25 ± 7.5 J/K/mol | molar heat capacity at constant pressure ([2]; 303.41 K, Liquid): 374.33 ± 7.5 J/K/mol | molar heat capacity at constant pressure ([2]; 304.05 K, Liquid): 374.34 ± 7.5 J/K/mol | molar heat capacity at constant pressure ([2]; 305.25 K, Liquid): 374.39 ± 7.5 J/K/mol | molar heat capacity at constant pressure ([2]; 306.31 K, Liquid): 374.86 ± 7.5 J/K/mol | molar heat capacity at constant pressure ([2]; 307.28 K, Liquid): 375.02 ± 7.5 J/K/mol | molar heat capacity at constant pressure ([2]; 308.4 K, Liquid): 375.08 ± 7.5 J/K/mol | molar heat capacity at constant pressure ([2]; 309.24 K, Liquid): 375.35 ± 7.5 J/K/mol | molar heat capacity at constant pressure ([2]; 310.32 K, Liquid): 375.6 ± 7.5 J/K/mol | molar heat capacity at constant pressure ([2]; 311.09 K, Liquid): 375.9 ± 7.5 J/K/mol | molar heat capacity at constant pressure ([2]; 312.37 K, Liquid): 376.23 ± 7.5 J/K/mol | molar heat capacity at constant pressure ([2]; 313.36 K, Liquid): 376.31 ± 7.5 J/K/mol | molar heat capacity at constant pressure ([2]; 314.28 K, Liquid): 376.34 ± 7.5 J/K/mol | molar heat capacity at constant pressure ([2]; 315.23 K, Liquid): 376.91 ± 7.5 J/K/mol | molar heat capacity at constant pressure ([2]; 316.39 K, Liquid): 377.46 ± 7.5 J/K/mol | molar heat capacity at constant pressure ([2]; 317.53 K, Liquid): 377.49 ± 7.5 J/K/mol | molar heat capacity at constant pressure ([2]; 318.23 K, Liquid): 377.55 ± 7.5 J/K/mol | molar heat capacity at constant pressure ([2]; 319.33 K, Liquid): 377.88 ± 7.6 J/K/mol | molar heat capacity at constant pressure ([2]; 320.09 K, Liquid): 377.93 ± 7.6 J/K/mol | molar heat capacity at constant pressure ([2]; 321.19 K, Liquid): 377.99 ± 7.6 J/K/mol | molar heat capacity at constant pressure ([2]; 322.08 K, Liquid): 378.21 ± 7.6 J/K/mol | molar heat capacity at constant pressure ([2]; 323.45 K, Liquid): 378.65 ± 7.6 J/K/mol | molar heat capacity at constant pressure ([2]; 324.17 K, Liquid): 379.09 ± 7.6 J/K/mol | molar heat capacity at constant pressure ([2]; 325 K, Liquid): 379.38 ± 7.6 J/K/mol | molar heat capacity at constant pressure ([2]; 326.2 K, Liquid): 379.69 ± 7.6 J/K/mol | molar heat capacity at constant pressure ([2]; 327.09 K, Liquid): 379.8 ± 7.6 J/K/mol | molar heat capacity at constant pressure ([2]; 328.21 K, Liquid): 379.88 ± 7.6 J/K/mol | molar heat capacity at constant pressure ([2]; 329.22 K, Liquid): 380.68 ± 7.6 J/K/mol | molar heat capacity at constant pressure ([2]; 330.18 K, Liquid): 380.93 ± 7.6 J/K/mol | molar heat capacity at constant pressure ([2]; 331.23 K, Liquid): 381.19 ± 7.6 J/K/mol | molar heat capacity at constant pressure ([2]; 332.31 K, Liquid): 381.58 ± 7.6 J/K/mol | molar heat capacity at constant pressure ([2]; 333.26 K, Liquid): 382.32 ± 7.7 J/K/mol

CCCCCCN [1-hexanamine]
Molar enthalpy of transition or fusion [1]: 25 ± 0.73 kJ/mol | molar heat capacity at constant pressure ([2]; 205.12 K, Crystal): 135.48 ± 2.7 J/K/mol | molar heat capacity at constant pressure ([2]; 206.53 K, Crystal): 137.42 ± 2.8 J/K/mol | molar heat capacity at constant pressure ([2]; 207.27 K, Crystal): 138.49 ± 2.8 J/K/mol | molar heat capacity at constant pressure ([2]; 208.18 K, Crystal): 140.02 ± 2.8 J/K/mol | molar heat capacity at constant pressure ([2]; 209.16 K, Crystal): 140.47 ± 2.8 J/K/mol | molar heat capacity at constant pressure ([2]; 210.21 K, Crystal): 141.21 ± 2.8 J/K/mol | molar heat capacity at constant pressure ([2]; 211.81 K, Crystal): 141.65 ± 2.8 J/K/mol | molar heat capacity at constant pressure ([2]; 212.3 K, Crystal): 141.8 ± 2.8 J/K/mol | molar heat capacity at constant pressure ([2]; 213.41 K, Crystal): 141.86 ± 2.8 J/K/mol | molar heat capacity at constant pressure ([2]; 214.27 K, Crystal): 141.99 ± 2.8 J/K/mol | molar heat capacity at constant pressure ([2]; 215.45 K, Crystal): 143.94 ± 2.9 J/K/mol | molar heat capacity at constant pressure ([2]; 216.17 K, Crystal): 144.89 ± 2.9 J/K/mol | molar heat capacity at constant pressure ([2]; 217.45 K, Crystal): 145.13 ± 2.9 J/K/mol | molar heat capacity at constant pressure ([2]; 218.13 K, Crystal): 145.21 ± 2.9 J/K/mol | molar heat capacity at constant pressure ([2]; 219.48 K, Crystal): 146.21 ± 2.9 J/K/mol | molar heat capacity at constant pressure ([2]; 220.34 K, Crystal): 147.15 ± 2.9 J/K/mol | molar heat capacity at constant pressure ([2]; 221.19 K, Crystal): 148.86 ± 3 J/K/mol | molar heat capacity at constant pressure ([2]; 222.04 K, Crystal): 149.71 ± 3 J/K/mol | molar heat capacity at constant pressure ([2]; 223.38 K, Crystal): 151.47 ± 3 J/K/mol | molar heat capacity at constant pressure ([2]; 224.66 K, Crystal): 152.29 ± 3 J/K/mol | molar heat capacity at constant pressure ([2]; 225.39 K, Crystal): 153.27 ± 3.1 J/K/mol | molar heat capacity at constant pressure ([2]; 226.42 K, Crystal): 155.08 ± 3.1 J/K/mol | molar heat capacity at constant pressure ([2]; 228.17 K, Crystal): 156.72 ± 3.1 J/K/mol | molar heat capacity at constant pressure ([2]; 230.11 K, Crystal): 160.13 ± 3.2 J/K/mol | molar heat capacity at constant pressure ([2]; 267.26 K, Liquid): 248.4 ± 5 J/K/mol | molar heat capacity at constant pressure ([2]; 268.63 K, Liquid): 248.52 ± 5 J/K/mol | molar heat capacity at constant pressure ([2]; 269.54 K, Liquid): 248.61 ± 5 J/K/mol | molar heat capacity at constant pressure ([2]; 270.16 K, Liquid): 248.66 ± 5 J/K/mol | molar heat capacity at constant pressure ([2]; 271.24 K, Liquid): 248.67 ± 5 J/K/mol | molar heat capacity at constant pressure ([2]; 272.69 K, Liquid): 248.95 ± 5 J/K/mol | molar heat capacity at constant pressure ([2]; 273.56 K, Liquid): 249.01 ± 5 J/K/mol | molar heat capacity at constant pressure ([2]; 274.18 K, Liquid): 249.09 ± 5 J/K/mol | molar heat capacity at constant pressure ([2]; 275.88 K, Liquid): 249.12 ± 5 J/K/mol | molar heat capacity at constant pressure ([2]; 276.66 K, Liquid): 249.26 ± 5 J/K/mol | molar heat capacity at constant pressure ([2]; 277.16 K, Liquid): 249.31 ± 5 J/K/mol | molar heat capacity at constant pressure ([2]; 278.69 K, Liquid): 249.34 ± 5 J/K/mol | molar heat capacity at constant pressure ([2]; 279.94 K, Liquid): 249.36 ± 5 J/K/mol | molar heat capacity at constant pressure ([2]; 280.47 K, Liquid): 249.45 ± 5 J/K/mol | molar heat capacity at constant pressure ([2]; 281.8 K, Liquid): 249.47 ± 5 J/K/mol | molar heat capacity at constant pressure ([2]; 282.34 K, Liquid): 249.48 ± 5 J/K/mol | molar heat capacity at constant pressure ([2]; 283.41 K, Liquid): 249.51 ± 5 J/K/mol | molar heat capacity at constant pressure ([2]; 284.45 K, Liquid): 249.55 ± 5 J/K/mol | molar heat capacity at constant pressure ([2]; 285.4 K, Liquid): 249.79 ± 5 J/K/mol | molar heat capacity at constant pressure ([2]; 286.56 K, Liquid): 249.85 ± 5 J/K/mol | molar heat capacity at constant pressure ([2]; 287.39 K, Liquid): 249.86 ± 5 J/K/mol | molar heat capacity at constant pressure ([2]; 288.43 K, Liquid): 250.09 ± 5 J/K/mol | molar heat capacity at constant pressure ([2]; 289.09 K, Liquid): 250.12 ± 5 J/K/mol | molar heat capacity at constant pressure ([2]; 290.21 K, Liquid): 250.23 ± 5 J/K/mol | molar heat capacity at constant pressure ([2]; 292.36 K, Liquid): 250.46 ± 5 J/K/mol | molar heat capacity at constant pressure ([2]; 293.15 K, Liquid): 250.5 ± 5 J/K/mol | molar heat capacity at constant pressure ([2]; 295.59 K, Liquid): 250.98 ± 5 J/K/mol
